Source: publication PMC4858680, “A platinum-based hybrid drug design approach to circumvent acquired resistance to molecular targeted tyrosine kinase inhibitors” (Scientific Reports, 2016)
Like-named read-outs stand apart in the source and are kept apart here. Blank lines part the entries; values can stand above or below the molecule they belong to.

Columns and labels:
HEK293 Bcr-Abl E255K = assay: Anticancer activity in HEK293 stably transfected with Bcr-Abl E255K; format: cell-based; settings: for IC50: stably transfected
RPMI8226 = assay: Anticancer activity (cytotoxicity) in Bcr-Abl negative cell line; format: cell-based
HEK293 Mock transfected = assay: Anticancer activity in mock transfected HEK293; format: cell-based; settings: Bcr-Abl negative
H292 = assay: Anticancer activity (cytotoxicity) in NSCLC cell line; format: cell-based; settings: NSCLC; EGFR wild type; read-out: Anticancer activity (IC50) H292
K562 Ima1.0 = assay: Anticancer activity in imatinib-selected resistant K562 subline; format: cell-based; settings: for IC50: read-out: Anticancer activity (IC50) K562 Imatinib selected (K562 Ima1.0), Bcr-Abl amplification
p38 = assay: Western blot analysis of p38 phosphorylation; format: cell-based
HEK293 Bcr-Abl wild type = assay: Anticancer activity in HEK293 stably transfected with wild type Bcr-Abl; format: cell-based
K562 = assay: Anticancer activity (cytotoxicity) in CML cell line; format: cell-based
HCC827 = assay: Anticancer activity (cytotoxicity) in NSCLC cell line; format: cell-based; settings: EGFR ΔE746-A750 (sensitizing)
H1975 = assay: as above; format: cell-based; settings: H1975 versus HCC827
[1] = Chemical stability of the hybrid compounds; settings: for chemical stability in culture medium: Dulbecco’s Modified Eagle Medium supplemented with 5 mM glutathione
P-gp (MDCKII–P-gp) = P-gp (MDCKII–P-gp) (Homo sapiens, UniProt P08183); settings: 10 μM, mean of three experiments
Chain of P-gp (MDCKII–P-gp) (P08183 whole entry): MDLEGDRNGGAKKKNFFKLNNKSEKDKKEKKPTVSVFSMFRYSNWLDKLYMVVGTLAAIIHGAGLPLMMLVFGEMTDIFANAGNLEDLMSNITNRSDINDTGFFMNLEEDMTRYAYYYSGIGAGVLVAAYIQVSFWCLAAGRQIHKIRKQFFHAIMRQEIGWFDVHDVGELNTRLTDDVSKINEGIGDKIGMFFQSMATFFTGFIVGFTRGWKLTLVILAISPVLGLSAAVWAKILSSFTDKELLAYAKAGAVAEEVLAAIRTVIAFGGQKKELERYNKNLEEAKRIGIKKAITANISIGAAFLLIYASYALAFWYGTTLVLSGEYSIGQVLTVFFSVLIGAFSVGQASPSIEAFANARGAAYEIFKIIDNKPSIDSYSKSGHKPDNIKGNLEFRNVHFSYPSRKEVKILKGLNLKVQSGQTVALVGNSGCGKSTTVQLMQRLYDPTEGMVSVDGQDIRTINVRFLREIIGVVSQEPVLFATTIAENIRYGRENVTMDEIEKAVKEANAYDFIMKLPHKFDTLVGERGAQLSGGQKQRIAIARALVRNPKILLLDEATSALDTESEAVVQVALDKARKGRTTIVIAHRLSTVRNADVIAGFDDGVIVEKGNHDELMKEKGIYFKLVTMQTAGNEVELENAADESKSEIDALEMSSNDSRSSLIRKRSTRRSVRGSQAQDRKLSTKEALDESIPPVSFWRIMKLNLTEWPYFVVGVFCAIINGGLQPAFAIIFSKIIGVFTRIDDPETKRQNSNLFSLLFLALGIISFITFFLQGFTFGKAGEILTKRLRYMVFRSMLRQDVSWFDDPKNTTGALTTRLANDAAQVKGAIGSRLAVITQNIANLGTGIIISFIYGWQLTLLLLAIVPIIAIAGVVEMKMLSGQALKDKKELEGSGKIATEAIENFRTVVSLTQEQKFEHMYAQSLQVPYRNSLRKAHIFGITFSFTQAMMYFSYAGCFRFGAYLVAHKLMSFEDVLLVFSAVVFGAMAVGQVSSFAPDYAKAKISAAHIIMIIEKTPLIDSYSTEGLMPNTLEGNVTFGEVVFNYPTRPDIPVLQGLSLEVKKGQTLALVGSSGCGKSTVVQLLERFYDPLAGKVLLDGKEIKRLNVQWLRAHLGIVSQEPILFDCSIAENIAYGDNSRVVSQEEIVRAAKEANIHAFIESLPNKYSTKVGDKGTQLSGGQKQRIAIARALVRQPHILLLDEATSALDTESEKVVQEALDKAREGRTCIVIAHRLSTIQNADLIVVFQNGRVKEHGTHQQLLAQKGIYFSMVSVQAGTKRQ

ABCG2 = biological target: T1, ABCG2 (Homo sapiens, UniProt Q9UNQ0, R482G); assay: 5D3 shift assay; format: cell-based; settings: ABCG2-overexpressing S1M1-80 cells; flow cytometry
T1 construct: endogenous in cells; host or cells: S1M1-80
T1 sequence (Q9UNQ0 whole entry R482G): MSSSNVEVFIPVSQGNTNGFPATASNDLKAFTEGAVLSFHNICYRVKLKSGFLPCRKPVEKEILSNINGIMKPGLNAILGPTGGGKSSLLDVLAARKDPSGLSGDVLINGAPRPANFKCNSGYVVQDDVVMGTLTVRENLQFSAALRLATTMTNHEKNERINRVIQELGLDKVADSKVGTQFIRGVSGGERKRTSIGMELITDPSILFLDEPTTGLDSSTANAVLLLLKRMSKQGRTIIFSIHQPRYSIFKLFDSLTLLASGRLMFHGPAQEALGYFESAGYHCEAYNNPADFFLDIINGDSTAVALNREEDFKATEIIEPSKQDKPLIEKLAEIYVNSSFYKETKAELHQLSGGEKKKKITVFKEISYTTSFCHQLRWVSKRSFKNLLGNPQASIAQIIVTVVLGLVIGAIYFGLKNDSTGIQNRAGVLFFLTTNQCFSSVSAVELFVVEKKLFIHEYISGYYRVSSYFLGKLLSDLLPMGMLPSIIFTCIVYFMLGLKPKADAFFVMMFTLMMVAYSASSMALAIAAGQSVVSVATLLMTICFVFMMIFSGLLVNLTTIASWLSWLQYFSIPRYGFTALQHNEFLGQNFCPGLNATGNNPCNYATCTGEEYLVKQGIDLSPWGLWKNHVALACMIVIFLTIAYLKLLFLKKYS

P-gp = P-gp (Homo sapiens, UniProt P08183); assay: UIC2 shift assay; format: cell-based; parameters: endogenous in cells; host or cells: SW620 Ad300; settings: P-gp overexpressing SW620 Ad300 cells; flow cytometry
Chain of P-gp (P08183 whole entry): as the sequence (P08183 whole entry) above

[2] = CML cell line, Bcr-Abl positive, Table 1, read-out: Anticancer activity (IC50) K562
[3] = Table 2, read-out: Anticancer activity (IC50) K562 Sensitive parental

Compound: N.N.[Cl][Pt][Cl] [Cisplatin]
- IC50 (HEK293 Bcr-Abl E255K): 6.54 ± 0.49 µM
- IC50 (RPMI8226): 2.97 ± 0.82 µM
- IC50 (HEK293 Mock transfected): 5.43 ± 0.72 µM
- IC50 (H292): 2.12 ± 0.87 µM
- IC50 (K562 Ima1.0): 17.5 ± 1.06 µM
- p38 phosphorylation (Western blot) (p38): induce p38 phosphorylation
- IC50 (HEK293 Bcr-Abl wild type): 8.16 ± 1.01 µM
- IC50 (K562; [2]): 19.8 ± 1.42 µM
- IC50 (K562; [3]): 19.8 ± 1.42 µM
- IC50 (HCC827): 6.65 ± 1.66 µM

Compound: COc1cc2c(Nc3ccc(Br)cc3F)[n+]([Pt@SP2-2]([NH2])([NH3+])[Cl])cnc2cc1OCC1CCN(C)CC1 [3a, cisplatin-vandetanib]
- IC50 (H292): 26.4 ± 3.19 µM

Compound: COc1cc2c(Nc3ccc(Br)cc3F)[n+]([Pt@SP3-2]([NH2])([NH3+])[Cl])cnc2cc1OCC1CCN(C)CC1 [3c, transplatin-vandetanib]
- IC50 (H292): 18.4 ± 4.48 µM

Compound: O=C1[O][Pt]2([NH][C@@H]3CCCC[C@H]3[NH]2)[O]C1=O [Oxaliplatin]
- IC50 (HEK293 Bcr-Abl E255K): 2.65 ± 0.71 µM
- Fold resistance HEK293 Bcr-Abl E255K (HEK293 Bcr-Abl E255K; versus HEK293 Bcr-Abl wild type): 0.8
- IC50 (RPMI8226): 0.43 ± 0.04 µM
- IC50 (HEK293 Mock transfected): 2.41 ± 0.32 µM
- Fold resistance (IC50 in H1975/IC50 in HCC827) (H1975): 1.4
- IC50 (H292): 3.77 ± 0.35 µM
- IC50 (K562 Ima1.0): 16.4 ± 1.14 µM
- Fold resistance K562 Ima1.0 (K562 Ima1.0; versus sensitive parental K562): 1.0
- IC50 (HEK293 Bcr-Abl wild type): 3.15 ± 0.87 µM
- IC50 (K562; [2]): 16.6 ± 2.08 µM
- IC50 (K562; [3]): 16.6 ± 2.08 µM
- IC50 (HCC827): 3.6 ± 1.76 µM

- A to B transport (apparent permeability) (P-gp (MDCKII–P-gp)): 3.57 × 10^−6
- B to A transport (apparent permeability) (P-gp (MDCKII–P-gp)): 3.40 × 10^−6
Compound: C#Cc1cccc(Nc2c3cc(OCCOC)c(OCCOC)cc3nc[n+]2[Pt@SP3-2]([NH3+])([NH3+])[Cl])c1 [2c, transplatin-erlotinib]
- chemical stability in culture medium [1]: undergo gradual degradation to release the original TKI

- 5D3 shift (interaction with ABCG2) (ABCG2): concentration dependent antibody shift
Compound: O=c1c(O)c(-c2ccc(O)c(O)c2)oc2cc(O)cc(O)c12 [quercetin]

- UIC2 shift (interaction with P-gp) (P-gp): concentration dependent antibody shift
Compound: C=C[C@H]1C[N@@]2CC[C@H]1C[C@H]2[C@H](O)c1ccnc2ccc(OC)cc12 [quinine]

Compound: C#Cc1cccc(Nc2c3cc(OCCOC)c(OCCOC)cc3nc[n+]2[Pt-2]2([Cl])[NH2+]C3CCCCC3[NH2+]2)c1 (stereo not drawn) [2b, oxaliplatin-erlotinib]
- IC50 (H292): 1.33 ± 0.39 µM
- chemical stability in all conditions tested ([1]; saline, phosphate buffered solution (pH 4 and 7.4), culture medium with 5 mM glutathione): stable
- A to B transport (apparent permeability) (P-gp (MDCKII–P-gp)): 6.59 × 10^−6

Compound: Cc1ccc(NC(=O)c2ccc(CN3CCN(C)CC3)cc2)cc1Nc1nccc(-c2cccnc2)[n+]1[Pt@SP3-2]([NH3+])([NH3+])[Cl] [1c, transplatin-imatinib]
- IC50 (HEK293 Mock transfected): 10.1 ± 1.39 µM
- activation of downstream ERK1/2 (Western blot) (ERK1/2 in K562 Ima1.0): able to inhibit the activation
- chemical stability in culture medium [1]: undergo gradual degradation to release the original TKI
- IC50 (K562 Ima1.0): 1.05 ± 0.14 µM
- DNA damage marker (phosphor-γ-H2Ax) (Western blot) (phosphor-γ-H2Ax): concentration dependent upregulation
- IC50 (K562; [2]): 1.04 ± 0.01 µM
- IC50 (K562; [3]): 1.04 ± 0.01 µM
